Assay results published in patent US8598147B2, “Synergistic antimicrobial composition” (Dow Global Technologies LLC, priority 2009, dated 2013).

Assays:
oilfield SRB consortium = test: Biocidal efficacy against anaerobic bacteria for a high temperature and sulfide-rich environment (dosage for 99.999% bacterial reduction); format: cell-based, sulfate reducing bacteria (SRB); conditions: 80° C., 7 days, daily challenge of SRB consortium and 10 ppm sulfide ion
Method: Inside an anaerobic chamber (BACTRON IV), biocides solutions were challenged with 10^4 to 10^5CFU/mL of an oilfield SRB consortium and 10 ppm sulfide ion (added in the form of sodium sulfide). The biocide solutions were then incubated at 80° C. under anaerobic condition for 7 days, with daily challenge of the SRB consortium (10^4 to 10^5CFU/mL) and sulfide ion (10 ppm). Then the biocidal efficacy was evaluated against the field SRB consortium at 2 hours and 7 days. The biocidal efficacy was determined by the biocide dosage required for 99.999% bacterial reduction. Synergy Index was then calculated. Table 2 summarizes the efficacy of each biocide and their blends, and the Synergy Index of each combination.

[1] = tested on: oil field isolated anaerobic consortium, mainly SRB; test: Biocidal efficacy (MBC, complete bacteria kill) of THPS, CTAC and THPS/CTAC combination against sulfate reducing bacteria; format: cell-based, sulfate reducing bacteria (SRB)
Method: Inside an anaerobic chamber (BACTRON anaerobic chamber), a deaerated sterile salt solution (3.1183 g of NaCl, 1.3082 mg of NaHCO3, 47.70 mg of KCl, 72.00 mg of CaCl2, 54.49 mg of MgSO4, 172.28 mg of Na2SO4, 43.92 mg of Na2CO3 in 1 L water) was contaminated with an oil field isolated anaerobic consortium, mainly SRB, at final bacterial concentrations of 10^6 to 10^7 CFU/mL.

Row | Compound | Concentration (active ppm) required for 99.999% bacterial reduction CTAC (oilfield SRB consortium; CTAC concentration (alone or within the blend)) | MBC (active ppm) CTAC ([1]; CTAC concentration (alone or within the blend) for complete bacteria kill, 40° C., 24 hour, anaerobic, 10^6 to 10^7 CFU/mL) | Concentration (active ppm) required for 99.999% bacterial reduction THPS (oilfield SRB consortium; THPS concentration (alone or within the blend)) | MBC (active ppm) THPS [1]
1 | Cl/C=C\C[N+]12CN3CN(CN(C3)C1)C2.[Cl-] [CTAC, cis-1-(3-chloroallyl)-3,5,7-triaza-1-azoniaadamantane chloride] | 180 active ppm | 31.1 active ppm |  | 
2 | tetrakis(hydroxymethyl)phosphonium sulfate [THPS] |  |  | 45.0 active ppm | 4.1 active ppm
